Measured values: patent US8383129B2, “Employment of rotavirus proteins, derived proteins and peptides for the modulation of tissue permeability” (priority 2003, dated 2013)
Entries after “also recorded” stand apart in the source; their conditions may differ.

Assays:
[1] = test system: pancreatic cancer and gastrointestinal tumors; conditions: cited from earlier work
MDCK monolayers [2] = experiment: Transepithelial electrical resistance (TER) across confluent MDCK monolayers; conditions: for TER of MDCK monolayers treated with synthetic cyclic peptides: 100 or 500 μg/ml, versus control cultures; for TER of epithelial (MDCK) monolayers: confluent monolayers (FIG. 1: after 30 min. of treatment); for TER after withdrawal of the protein from the culture media: monolayers washed and transferred to media without GST-VP8; for dose dependence of the effect upon TER: 0.4, 4 or 10 μg/ml
Description: MDCK cells were cultured as previously described (Gonzalez-Mariscal et al., 1990) and used for experiments between passages 70-90.
The degree of sealing of tight junctions was evaluated by measuring the transepithelial electrical resistance (TER) across the monolayer. Standard procedures were followed (Gonzalez-Mariscal et al., 1990). Briefly, monolayers grown over Millipore filters were mounted between two Lucite chambers with an exposed area of 0.23 cm2. Current was delivered via Ag—AgCl electrodes placed at 2.0 cm form the monolayer; the voltage deflection elicited was measured with a second set of electrodes placed at 1.0 mm from the membrane. The contribution if the filter and the bathing solution was subtracted, and all values reported correspond exclusively to the monolayer. Each disk was used for a single determination.
The determination of the TER across an epithelial monolayer was done as described in Example 1.

[3] = test system: rats with streptozotocin induced diabetes; experiment: Blood glucose after insulin administration to diabetic rats; assay type: in vivo, rat
Description: (§1) A) Generation of Diabetic Rats. • Male Wistar rats (230-250 gr.) were maintained on PicoLab® Rodent Diet 20, sterilized by irradiation and water ad libitum, in the animal house (temperature 22 to 24° C., 50 to 55% humidity). Care and handling of the animals were in accordance to international recommended procedures. • Diabetes mellitus type I was induced with one intraperitoneal shot of streptozotocin (75 mg/Kg weight; Sigma, Cat. No. S0130), diluted in citrate buffer 0.1 M (Sigma, Cat. No. S4641) pH 4.5. Streptozotocin solution was prepared immediately before use and protected from light exposure.
(§2) B) Determination of Glucose Concentration in Blood. • Using heparinized capillary tubing (Chase Scientific Glass Inc. Cat. No. 2501) a drop of blood was taken from the eye orbital sinus of the rats. Blood glucose concentration was determined using reactive strips (One Touch, LIFESCAN, Johnson & Johnson) and a commercial glucometer (One Touch Basic Plus, LIFESCAN, Johnson & Johnson). Glucose concentration was determined in healthy animals and in those that had received the streptozotocin intraperitoneal shot at least three days before being tested.
C) Administration of Insulin to Diabetic Rats. • In order to study the changes in glucose concentration generated by the administration of insulin, the first blood sample was taken from diabetic animals that had fasted overnight. Immediately after, the animals received their food (Lab Diet 5053), and 30 minutes later they were treated according to the following protocols: 1) Human insulin of intermediate action (3-6 IU/rat; Humulin® N, HI-310, Lilly) was parenterally administered. 2) Human insulin of intermediate action (15-30 IU/rat; Humulin® N, HI-310, Lilly) was given orally through an esophagic rat cannula (Fine Science Tools; Cat. No. 18061-75), in a solution of 400 μl of NaHCO3 (1.5 g/100 ml, pH 8.3-8.4), to neutralize gastric acidity. 3) Employing an esophagic rat cannula, 100 μg of GST-VP8 and human insulin of intermediate action (15-30 IU/rat; Humulin® N, HI-310, Lilly) were administered orally in a solution of 400 μl NaHCO3 (1.5 g/100 ml, pH 8.3-8.4). 4) 100 μg of GST-VP8 were administered orally through an esophagic rat cannula. The level of blood glucose was determined at different times after the start of each of the above described procedures.

claudin-3 = biological target: T1, claudin-3 (Canis lupus familiaris, UniProt Q95KM5); experiment: Immunolocalization of TJ protein claudin-3 in MDCK monolayers; assay type: cell-based; conditions: 4 μg/ml, 1 hr
T1 construct: endogenous in cells; host or cells: MDCK
T1 sequence (Q95KM5 1-218): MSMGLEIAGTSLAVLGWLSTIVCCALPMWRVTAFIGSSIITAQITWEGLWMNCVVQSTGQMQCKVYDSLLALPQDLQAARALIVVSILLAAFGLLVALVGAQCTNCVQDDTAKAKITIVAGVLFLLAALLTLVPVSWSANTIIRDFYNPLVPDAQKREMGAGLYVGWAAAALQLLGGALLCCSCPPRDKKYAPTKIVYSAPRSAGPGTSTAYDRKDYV
Description: (§3) MDCK cells were cultured in glass coverslips. Confluent cultures were exposed to 4 μg/ml of GST-VP8 for 1 hr. The cells were then fixed for 30 min with 2% p-formaldehyde in PBS, pH 7.4, and permeabilized for 3 min with 0.2% PBS-TX. Cells were washed five times with PBS and then blocked for 30 minutes with 1% BSA Ig free (Research Organics 1331-a). The monolayers were incubated overnight at 4° C. with rabbit polyclonal antibodies against ZO-1 (Zymed 61-7300, dilution 1:100), Claudin 3 (Zymed 34-1700, dilution 3 μgr/ml) or occludin (Zymed 71-1500, dilution 1:100 in 1% Ig-free BSA). After being washed five times with PBS, the coverslips were incubated for one hour at room temperature with a secondary antibody (FITC-conjugated goat anti-rabbit, catalogue no. 65-6111, diluted 1:100, Zymed). The monolayers were washed five times in PBS before being mounted with the antifade reagent Vectashield (Vector Laboratories Inc.). The fluorescence of the monolayers was examined using a confocal microscope (MRC600, Bio-Rad) with a Krypton-argon laser.

occludin = biological target: T2, occludin (Canis lupus familiaris, UniProt Q28269); experiment: Immunolocalization of TJ protein occludin in MDCK monolayers; assay type: cell-based; conditions: 4 μg/ml, 1 hr
T2 construct: endogenous in cells; host or cells: MDCK
T2 sequence (Q28269 1-521): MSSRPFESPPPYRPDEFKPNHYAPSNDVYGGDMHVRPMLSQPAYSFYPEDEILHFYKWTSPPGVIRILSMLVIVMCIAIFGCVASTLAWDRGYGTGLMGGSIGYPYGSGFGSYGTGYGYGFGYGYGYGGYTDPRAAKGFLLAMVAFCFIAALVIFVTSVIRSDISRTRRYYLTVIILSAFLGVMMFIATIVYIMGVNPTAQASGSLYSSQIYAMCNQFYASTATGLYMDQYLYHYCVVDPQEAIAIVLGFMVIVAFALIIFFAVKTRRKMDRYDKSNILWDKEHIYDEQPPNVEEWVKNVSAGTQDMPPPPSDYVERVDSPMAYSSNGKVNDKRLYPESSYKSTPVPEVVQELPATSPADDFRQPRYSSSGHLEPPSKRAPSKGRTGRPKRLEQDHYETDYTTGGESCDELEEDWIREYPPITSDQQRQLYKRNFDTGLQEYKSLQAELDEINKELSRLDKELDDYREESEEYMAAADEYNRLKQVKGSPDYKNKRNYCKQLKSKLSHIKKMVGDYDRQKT
Description: as §3

MDCK monolayers [4] = experiment: Calcium-switch assay for TJ assembly (development of TER); assay type: cell-based; conditions: 4 μg/ml
Description: The ability of VP8 to inhibit the development of TJ was assessed utilizing the Ca^2+ switch assay (Gonzalez-Mariscal et al., 1990). Cells were plated at confluency on Millipore filters and incubated for 1 hour in DMEM (normal calcium media, NC; 1.8 mM Ca^2+). Then, the resulting monolayers were washed three times with PBS without Ca^2+ and transferred to minimal essential medium without Ca^2+ (low calcium media, LC; 1-5 μM Ca^2+). Twenty hours later experimental monolayers were transferred to LC media containing 4 μg/ml of GST-VP8 or of GST-VP5 dissolved in LC media, while control monolayers were again incubated in LC media. After 30 minutes, the experimental monolayers were transferred to NC media containing 4 μg/ml of GST-VP8 or of GST-VP5. Control monolayers received instead NC media. The TER was measured at different time points after the monolayers were transferred to NC media.

ZO-1 = experiment: Immunolocalization of TJ protein ZO-1 in MDCK monolayers; assay type: cell-based; conditions: 4 μg/ml, 1 hr
Description: as §3

male Wistar rats = experiment: Induction of diabetes: blood glucose after streptozotocin; assay type: in vivo, rat; conditions: 75 mg/kg intraperitoneal, three days after injection, versus mock injection
Description: as §1, §2

TJ of MDCK monolayers = experiment: Freeze-fracture analysis of TJ strands in MDCK monolayers; assay type: cell-based; conditions: 4 μg/ml, 1 hour
Description: Confluent monolayers of MDCK cells were incubated for 1 hour with 4 μg/ml of GST-VP8 dissolved in DMEM, while control monolayers remained in DMEM. Freeze-fracture replicas were obtained from monolayers fixed with 2.5% glutaraldehyde for 30 minutes, and gradually infiltrated with glycerol up to a 20% concentration, in which they were left for 1 hour. The monolayers were then detached from the substrate and frozen in liquid nitrogen. Freeze fracture was carried out at −120° C., and 2×10^−6 mm Hg using a Balzers apparatus (BAF400T). After evaporation of platinum and carbon, the organic material was digested for 1 hour in chromic mixture. Replicas were extensively washed in distilled water and mounted in Formvar coated grids. The observations were done in an electron microscope JEOL 200EX.
To assess modifications in the pattern of TJ strands, we counted the number of strands intercepting lines drawn perpendicular to the main axis of the junction, every 48 nm, as well as the distance between the upper and lowermost strand. 59 and 54 μm of TJ networks were analysed respectively for control and VP8 treated monolayers.
As has been previously reported (Gonzalez-Mariscal et al., 1985) the amount of junction is defined by the following function:
Where ni is the number of strands in a segment of TJ, and % is the percentage in which that number of strands is present in the sample.
Total junctional width is defined as: […]
Where ni is the distance between the upper and lowermost filament in TJ segment, and %i is the percentage in which that width is present in the sample.

**Q.** Which tumor growth [1] does the source give for TGFβ here?
**A.** significant reduction of tumor growth

**Q.** With “183NVTT186 (Rhesus Monkey Rotavirus) [SEQ. ID. No. 7]” as the molecule, how does the “TER of MDCK monolayers treated with synthetic cyclic peptides” value (from here on “TER of MDCK monolayers treated”) (MDCK monolayers [2]) read?
**A.** significantly reduces the TER; also recorded: significantly lower TER

**Q.** With “174IYTY177 (Rhesus Monkey Rotavirus) [SEQ. ID. No. 6]” as the molecule, how does the “TER of MDCK monolayers treated” value (MDCK monolayers [2]) read?
**A.** no effect; also recorded: TER similar to that of control cultures

**Q.** Which “blood glucose concentration, insulin administered orally alone” value ([3]; 30 IU, oral) does the source give for “insulin: Human insulin of intermediate action (Humulin® N, HI-310, Lilly) [reference compound]” here?
**A.** the concentration of glucose remains high; also recorded: does not diminish the blood glucose concentration

**Q.** And the “blood glucose concentration, insulin administered parenterally” value ([3]; Humulin, intermediate action, 6 IU, parenteral)?
**A.** decreases the blood glucose concentration

**Q.** For “GST-VP8: RRV VP8 fragment (VP4 gene nucleotides 1 to 750) cloned in pGEX-4T-1, fusion protein”, which “TER of epithelial (MDCK) monolayers” value (MDCK monolayers [2]; 4 μg/ml) is on record?
**A.** significant decrease in TER

**Q.** And the “TER of epithelial (MDCK) monolayers” value (MDCK monolayers [2]; 4 μg/ml, listed as VP8-GST)?
**A.** significantly reduces the TER

**Q.** And the “TER after withdrawal of the protein from the culture media” value (MDCK monolayers [2]; 4 μg/ml)?
**A.** recover their TER

**Q.** And the “TER after withdrawal of the protein from the culture media” value (MDCK monolayers [2]; 4 μg/ml, listed as GST-VPB)?
**A.** the TER of the monolayers is restored

**Q.** And the “dose dependence of the effect upon TER” value (MDCK monolayers [2])?
**A.** dose-dependent decrease in TER

**Q.** What about the “distribution of claudin-3 (immunofluorescence)” value (claudin-3) of the same molecule?
**A.** large areas almost devoid of lateral staining; also recorded: cell border staining becomes barely detectable in large areas of the monolayer

**Q.** And the “distribution of occludin (immunofluorescence)” value (occludin)?
**A.** broad and diffuse stain at the cell periphery; also recorded: diffuse and wide label at the cellular boundaries

**Q.** What about the “development of TER / epithelial paracellular barrier after transfer from low to normal calcium media” value (MDCK monolayers [4]) of the same molecule?
**A.** delays the development of the epithelial paracellular barrier

**Q.** And the “distribution of ZO-1 (immunofluorescence)” value (ZO-1)?
**A.** strong immuno reactivity in the cytoplasm; also recorded: strong immunoreactivity in the cytoplasm

**Q.** What does the source list for `CN(N=O)C(=O)N[C@H]1C(O)O[C@H](CO)[C@@H](O)[C@@H]1O` (mixture of isomers) [streptozotocin]?
**A.** concentration of blood glucose (male Wistar rats): significantly increased the level of glucose in the blood; concentration of blood glucose (male Wistar rats; listed as Streptozotocin): significantly increases the concentration of blood glucose

**Q.** Which “TER of MDCK monolayers treated” value (MDCK monolayers [2]) does the source give for “144VVKT147 (Rhesus Monkey Rotavirus) [SEQ. ID. No. 4]” here?
**A.** no effect; also recorded: TER similar to that of control cultures

**Q.** With “VP8: polypeptide derived from rotavirus protein VP4; used in the experiments as GST or His fusion protein” as the molecule, how does the “TJ freeze fracture pattern” value (TJ of MDCK monolayers) read?
**A.** induces the appearance of loose ends oriented perpendicular to the network of TJ fibrils

**Q.** And the “distribution of the number of TJ strands” value (TJ of MDCK monolayers; versus control monolayers)?
**A.** no change

**Q.** And the “total amount of junction” value (TJ of MDCK monolayers; versus control monolayers)?
**A.** no change

**Q.** What about the “Number of loose ends/linear amount of junction in μm” value (TJ of MDCK monolayers; control monolayers 0.17) of the same molecule?
**A.** 0.32

**Q.** What about the “TER of epithelial (MDCK) monolayers” value (MDCK monolayers [2]; 4 μg/ml) of the same molecule?
**A.** diminishes the TER

**Q.** What about the “reversibility with time of the effect upon TER” value (MDCK monolayers [2]; 4 μg/ml, protein kept in media) of the same molecule?
**A.** reversible with time; also recorded: in a reversible manner

**Q.** And the “dose dependence of the effect upon TER” value (MDCK monolayers [2])?
**A.** dose dependent

**Q.** What about the “development of TER / epithelial paracellular barrier after transfer from low to normal calcium media” value (MDCK monolayers [4]) of the same molecule?
**A.** a clear inhibition in the development of TER

**Q.** What about the “blood glucose concentration, insulin administered orally together with VP8” value ([3]; VP8 100 μg and insulin 30 IU, oral) of the same molecule?
**A.** the blood glucose concentration diminishes; also recorded: diminishes significantly

**Q.** What about the “blood glucose concentration, VP8 administered orally alone” value ([3]; VP8 100 μg, oral, no insulin) of the same molecule?
**A.** Only with the latter treatment the blood glucose concentration diminished
